According to patent publication US20080125432A1 (Devgen NV, priority 2004, published 2008):

Compound	melting point [°C]
COC[C@@H](NC(=O)c1sc(Nc2ccccc2OC)nc1C)c1ccccc1 [Compound 149, 2-(2-methoxy-phenylamino)-4-methyl-thiazole-5-carboxylic acid ((S)-2-methoxy-1-phenyl-ethyl)-amide]	118.8 to 129.6
COc1ccccc1N(C)c1nc(C)c(C(=O)N[C@H](CO)c2ccccc2)s1 [Compound 150, 2-[(2-methoxy-phenyl)-methyl-amino]-4-methyl-thiazole-5-carboxylic acid ((S)-2-hydroxy-1-phenyl-ethyl)-amide]	119.4
COC(=O)[C@H](NC(=O)c1sc(Nc2ccccc2OC)nc1C)c1ccccc1 [Compound 151, (R)-{[2-(2-methoxy-phenylamino)-4-methyl-thiazole-5-carbonyl]-amino}-phenyl-aceticacid methyl ester]	131.4 to 137.9
COC(=O)[C@@H](NC(=O)c1sc(Nc2ccccc2OC)nc1C)c1ccccc1 [Compound 152, (S)-{[2-(2-methoxy-phenylamino)-4-methyl-thiazole-5-carbonyl]-amino}-phenyl-aceticacid methyl ester]	133.5 to 135.7
Cc1nc(Nc2ccncc2)sc1C(=O)N[C@H]1CCC[C@@H]1OCc1ccccc1 [Compound 153, 4-methyl-2-(pyridin-4-ylamino)-thiazole-5-carboxylic acid ((1S,2S)-2-benzyloxycyclopent-1-yl) amide]	78.1 to 81.7
COc1ccccc1Nc1nc(C)c(C(=O)N2CC=C(c3ccc(F)cc3)CC2)s1 [Compound 163, [4-(4-fluoro-phenyl)-3,6-dihydro-2H-pyridin-1-yl]-[2-(2-methoxy-phenylamino)-4-methyl-thiazol-5-yl]-methanone]	144.4 to 149.2
COc1ccccc1Nc1nc(C)c(C(=O)NC2CCc3ccccc32)s1 (centres unmarked) [Compound 164, 2-(2-methoxy-phenylamino)-4-methyl-thiazole-5-carboxylic acid indan-1-ylamide]	146.2 to 148
COc1ccccc1Nc1nc(C)c(C(=O)Nc2ccc(Cn3cccn3)cc2)s1 [Compound 166, 2-(2-methoxy-phenylamino)-4-methyl-thiazole-5-carboxylic acid (4-pyrazol-1-ylmethyl-phenyl)-amide]	211.3 to 214.4
COc1ccccc1Nc1nc(C)c(C(=O)N2CCC(c3ccc(C)cc3)CC2)s1 [Compound 168, [2-(2-methoxy-phenylamino)-4-methyl-thiazol-5-yl]-[4-p-tolyl-piperidin-1-yl]-methanone]	187.7 to 191.5
COc1ccccc1Nc1nc(C)c(C(=O)NC2CCCc3ccccc32)s1 (centres unmarked) [Compound 173, 2-(2-methoxy-phenylamino)-4-methyl-thiazole-5-carboxylic acid (1,2,3,4-tetrahydro-naphthalen-1-yl)-amide]	129.4
COc1ccccc1Nc1nc(C)c(C(=O)N2CCC(Cc3ccccc3)CC2)s1 [Compound 174, (4-benzyl-piperidin-1-yl)-[2-(2-methoxy-phenylamino)-4-methyl-thiazol-5-yl]-methanone]	166.8 to 169.2
COc1ccccc1Nc1nc(C)c(C(=O)N2CCC(C(=O)c3ccc(F)cc3)CC2)s1 [Compound 175, [4-(4-fluoro-benzoyl)-piperidin-1-yl]-[2-(2-methoxy-phenylamino)-4-methyl-thiazol-5-yl]-methanone]	92.6 to 99.6
COc1ccccc1Nc1nc(C)c(C(=O)N2CCCC2c2ccccc2)s1 (centres unmarked) [Compound 176, [2-(2-methoxy-phenylamino)-4-methyl-thiazol-5-yl]-(2-phenyl-pyrrolidin-1-yl)-methanone]	113.5 to 117.6
COc1ccccc1Nc1nc(C)c(C(=O)N2CCCC2c2ccc(F)cc2)s1 (centres unmarked) [Compound 177, [2-(4-fluoro-phenyl)-pyrrolidin-1-yl]-[2-(2-methoxy-phenylamino)-4-methyl-thiazol-5-yl]-methanone]	94.4 to 106.6
Cc1nc(NC(=O)c2ccccc2)sc1C(=O)N[C@H]1CCC[C@@H]1OCc1ccccc1 [Compound 179, 2-benzoylamino-4-methyl-thiazole-5-carboxylic acid ((1S,2S)-2-benzyloxycyclopent-1-yl) amide]	97.4 to 110.6

The remaining lines, values ahead:

melting point [°C]	Compound
118.3 to 121.7	COc1ccccc1Nc1nc(C)c(C(=O)NCc2ccccc2C)s1 [Compound 140, 2-(2-methoxy-phenylamino)-4-methyl-thiazole-5-carboxylic acid 2-methyl-benzylamide]
148.1 to 149.9	COc1ccccc1Nc1nc(C)c(C(=O)NCc2cccc(C)c2)s1 [Compound 141, 2-(2-methoxy-phenylamino)-4-methyl-thiazole-5-carboxylic acid 3-methyl-benzylamide]
128.4 to 132	COc1ccccc1Nc1nc(C)c(C(=O)NCc2ccccc2-c2ccccc2)s1 [Compound 143, 2-(2-methoxy-phenylamino)-4-methyl-thiazole-5-carboxylic acid (biphenyl-2-ylmethyl)-amide]
126.6 to 128.3	COc1ccccc1Nc1nc(C)c(C(=O)NCc2cccc(-c3ccccc3)c2)s1 [Compound 144, 2-(2-methoxy-phenylamino)-4-methyl-thiazole-5-carboxylic acid (biphenyl-3-ylmethyl)-amide]
189.6 to 191.2	COc1ccccc1Nc1nc(C)c(C(=O)NCc2ccc(-c3ccccc3)cc2)s1 [Compound 145, 2-(2-methoxy-phenylamino)-4-methyl-thiazole-5-carboxylic acid (biphenyl-4-ylmethyl)-amide]
159.6 to 164	COc1ccccc1Nc1nc(C)c(C(=O)NCc2ccccc2Br)s1 [Compound 146, 2-(2-methoxy-phenylamino)-4-methyl-thiazole-5-carboxylic acid 2-bromo-benzylamide]
161.3 to 164.1	COc1ccccc1Nc1nc(C)c(C(=O)NCc2cccc(Br)c2)s1 [Compound 147, 2-(2-methoxy-phenylamino)-4-methyl-thiazole-5-carboxylic acid 3-bromo-benzylamide]
76.1 to 80.2	COc1ccccc1Nc1nc(C)c(C(=O)NCc2ccccc2OC(F)(F)F)s1 [Compound 157, 2-(2-methoxy-phenylamino)-4-methyl-thiazole-5-carboxylic acid 2-trifluoromethoxy-benzylamide]
96.1 to 100.3	COc1ccccc1Nc1nc(C)c(C(=O)NCc2cccc(OC(F)(F)F)c2)s1 [Compound 158, 2-(2-methoxy-phenylamino)-4-methyl-thiazole-5-carboxylic acid 3-trifluoromethoxy-benzylamide]
135.2 to 138.9	COc1ccccc1Nc1nc(C)c(C(=O)NCc2ccc(OC(F)(F)F)cc2)s1 [Compound 159, 2-(2-methoxy-phenylamino)-4-methyl-thiazole-5-carboxylic acid 4-trifluoromethoxy-benzylamide]
166 to 167.4	COc1ccccc1Nc1nc(C)c(C(=O)NCc2ccc3c(c2)OCO3)s1 [Compound 162, 2-(2-methoxy-phenylamino)-4-methyl-thiazole-5-carboxylic acid (benzo[1,3]dioxol-5-ylmethyl)-amide]
